# From ChEMBL document CHEMBL1151200, “Comparison of fascaplysin and related alkaloids: a study of structures, cytotoxicities, and sources” (J Nat Prod, 2004)
# Experiments:
# [1] = Cytotoxicity against human H116 cells at 84 ug/disk by disk diffusion soft agar colony formation assay; type: functional
# [2] = system: CCRF-CEM; assay: Cytotoxicity against human CEM cells at 84 ug/disk by disk diffusion soft agar colony formation assay; type: functional
# [3] = Cytotoxicity against human H125 cells at 84 ug/disk by disk diffusion soft agar colony formation assay; type: functional
# [4] = system: L1210; assay: Cytotoxicity against mouse L1210 cells at 84 ug/disk by disk diffusion soft agar colony formation assay; type: functional
# [5] = system: MC-38; assay: Cytotoxicity against mouse C38 cells at 84 ug/disk by disk diffusion soft agar colony formation assay; type: functional
# [6] = Cytotoxicity against mouse CFU-GM cells at 84 ug/disk by disk diffusion soft agar colony formation assay; type: cell-based
# [7] = system: MCF7; assay: Antitumor activity against […] human MCF7 cells; type: functional, cell-based
# [8] = system: A549; assay: Antitumor activity against human A549/ATCC cells; type: functional, cell-based
# [9] = system: SR; assay: Antitumor activity against human SR cells; type: functional, cell-based
# [10] = system: SK-OV-3; assay: Antitumor activity against human SKOV3 cells; type: functional, cell-based
# [11] = system: NCI-H322M; assay: Antitumor activity against human NCI-H322M cells; type: functional, cell-based
# [12] = system: OVCAR-3; assay: Antitumor activity against human OVCAR-3 cells; type: functional, cell-based
# [13] = system: BT-549; assay: Antitumor activity against human BT549 cells; type: functional, cell-based
# [14] = system: SNB-75; assay: Antitumor activity against human SNB75 cells; type: functional, cell-based
# [15] = system: Malme-3M; assay: Antitumor activity against human MALME-3M cells; type: functional, cell-based
# [16] = system: HOP-62; assay: Antitumor activity against human HOP62 cells; type: functional, cell-based
# [17] = system: HL-60(TB); assay: Antitumor activity against human HL-60(TB) cells; type: functional, cell-based
# [18] = system: CCRF-CEM; assay: Antitumor activity against human CCRF-CEM cells; type: functional, cell-based
# [19] = system: PC-3; assay: Antitumor activity against human PC3 cells; type: functional, cell-based
# [20] = system: HCT-15; assay: Antitumor activity against human HCT15 cells; type: functional, cell-based
# [21] = system: K562; assay: Antitumor activity against human K562 cells; type: functional, cell-based
# [22] = system: ACHN; assay: Antitumor activity against human ACHN cells; type: functional, cell-based
# [23] = system: NCI-H522; assay: Antitumor activity against human NCI-H522 cells; type: functional, cell-based
# [24] = system: OVCAR-8; assay: Antitumor activity against human OVCAR8 cells; type: functional, cell-based
# [25] = system: SF-539; assay: Antitumor activity against human SF539 cells; type: functional, cell-based
# [26] = system: U-251; assay: Antitumor activity against human U251 cells; type: functional, cell-based
# [27] = system: SN12C; assay: Antitumor activity against human SN12C cells; type: functional, cell-based
# [28] = Antitumor activity against human 786-O cells; type: functional, cell-based; conditions: 786-0
# [29] = system: MDA-MB-231; assay: Antitumor activity against human MDA-MB-231 cells; type: functional, cell-based
# [30] = system: HCT-116; assay: Antitumor activity against human HCT116 cells; type: functional, cell-based
# [31] = system: HOP-92; assay: Antitumor activity against human HOP92 cells; type: functional, cell-based
# [32] = system: IGROV-1; assay: Antitumor activity against human IGROV1 cells; type: functional, cell-based
# [33] = system: MDA-MB-435; assay: Antitumor activity against human MDA-MB-435 cells; type: functional, cell-based
# [34] = system: RXF 393; assay: Antitumor activity against human RXF393 cells; type: functional, cell-based
# [35] = system: NCI-H460; assay: Antitumor activity against human NCI-H460 cells; type: functional, cell-based
# [36] = system: SF-268; assay: Antitumor activity against human SF268 cells; type: functional, cell-based
# [37] = system: OVCAR-4; assay: Antitumor activity against human OVCAR4 cells; type: functional, cell-based
# [38] = system: NCI-H23; assay: Antitumor activity against human NCI-H23 cells; type: functional, cell-based
# [39] = system: TK-10; assay: Antitumor activity against human TK10 cells; type: functional, cell-based
# [40] = system: UACC-257; assay: Antitumor activity against human UACC257 cells; type: functional, cell-based
# [41] = system: RPMI-8226; assay: Antitumor activity against human RPMI8226 cells; type: functional, cell-based
# [42] = system: HT-29; assay: Antitumor activity against human HT-29 cells; type: functional, cell-based
# [43] = system: SK-MEL-28; assay: Antitumor activity against human SK-MEL-28 cells; type: functional, cell-based
# [44] = system: SW-620; assay: Antitumor activity against human SW620 cells; type: functional, cell-based
# [45] = system: T47D; assay: Antitumor activity against human T47D cells; type: functional, cell-based
# [46] = system: UACC-62; assay: Antitumor activity against human UACC62 cells; type: functional, cell-based
# [47] = system: MDA-N; assay: Antitumor activity against human MDA-N cells; type: functional, cell-based
# [48] = system: COLO 205; assay: Antitumor activity against human COLO205 cells; type: functional, cell-based
# [49] = Antitumor activity against human Hs 578T cells; type: functional, cell-based
# [50] = system: SK-MEL-5; assay: Antitumor activity against human SK-MEL-5 cells; type: functional, cell-based
# [51] = system: HCC 2998; assay: Antitumor activity against human HCC2998 cells; type: functional, cell-based
# [52] = system: SF-295; assay: Antitumor activity against human SF295 cells; type: functional, cell-based
# [53] = system: MOLT-4; assay: Antitumor activity against human MOLT4 cells; type: functional, cell-based
# [54] = system: DU-145; assay: Antitumor activity against human DU145 cells; type: functional, cell-based
# [55] = system: CAKI-1; assay: Antitumor activity against human Caki1 cells; type: functional, cell-based
# [56] = system: NCI-H226; assay: Antitumor activity against human NCI-H226 cells; type: functional, cell-based
# [57] = system: UO-31; assay: Antitumor activity against human UO31 cells; type: functional, cell-based
# [58] = system: KM12; assay: Antitumor activity against human KM12 cells; type: functional, cell-based
# [59] = system: EKVX; assay: Antitumor activity against human EKVX cells; type: functional, cell-based
# [60] = system: M14; assay: Antitumor activity against human M14 cells; type: functional, cell-based
# [61] = system: OVCAR-5; assay: Antitumor activity against human OVCAR5 cells; type: functional, cell-based
# [62] = system: MCF7; assay: Antitumor activity against human MCF7 cells; type: functional, cell-based
# [63] = system: SNB-19; assay: Antitumor activity against human SNB19 cells; type: functional, cell-based
# [64] = system: LOX IMVI; assay: Antitumor activity against human LOXIMVI cells; type: functional, cell-based
# [65] = system: CCRF-CEM; assay: Cytotoxicity against human CEM cells at 64 ug/disk by disk diffusion soft agar colony formation assay; type: functional
# [66] = system: MC-38; assay: Cytotoxicity against mouse C38 cells at 64 ug/disk by disk diffusion soft agar colony formation assay; type: functional
# [67] = system: L1210; assay: Cytotoxicity against mouse L1210 cells at 64 ug/disk by disk diffusion soft agar colony formation assay; type: functional
# [68] = Cytotoxicity against human H116 cells at 64 ug/disk by disk diffusion soft agar colony formation assay; type: functional
# [69] = Cytotoxicity against human H125 cells at 64 ug/disk by disk diffusion soft agar colony formation assay; type: functional
# [70] = Cytotoxicity against human H125 cells at 18 ug/disk by disk diffusion soft agar colony formation assay; type: functional
# [71] = system: L1210; assay: Cytotoxicity against mouse L1210 cells at 18 ug/disk by disk diffusion soft agar colony formation assay; type: functional
# [72] = system: MC-38; assay: Cytotoxicity against mouse C38 cells at 18 ug/disk by disk diffusion soft agar colony formation assay; type: functional
# [73] = system: CCRF-CEM; assay: Cytotoxicity against human CEM cells at 18 ug/disk by disk diffusion soft agar colony formation assay; type: functional
# [74] = Cytotoxicity against mouse CFU-GM cells at 18 ug/disk by disk diffusion soft agar colony formation assay; type: cell-based
# [75] = Cytotoxicity against human H116 cells at 18 ug/disk by disk diffusion soft agar colony formation assay; type: functional
compound,measurement,setting,value
COC(=O)c1ccc(Br)cc1-[n+]1ccc2c(c1)[nH]c1cc(Br)ccc12.[Cl-],Activity,[1],300 Zone units
same,Activity,[2],300 Zone units
same,Activity,[3],500 Zone units
same,Activity,[4],450 Zone units
same,Activity,[5],350 Zone units
same,Activity,[6],400 Zone units
CC1=C(CC/C(C)=C/CC/C(C)=C/CCC(CC(=O)O)C(=O)[O-])C(C)(C)CCC1.O=C1c2ccccc2-[n+]2ccc3c([nH]c4ccccc43)c21 (stereo not given) [FASCAPLYSIN A],IC50,[7],> 10 µM
same,IC50,[8],7.6 µM
same,IC50,[9],> 10 µM
same,IC50,[10],7.7 µM
same,IC50,[11],4.3 µM
same,IC50,[12],3.1 µM
same,IC50,[13],5.1 µM
same,IC50,[14],5.2 µM
same,IC50,[15],0.54 µM
same,IC50,[16],5.1 µM
same,IC50,[17],> 10 µM
same,IC50,[18],> 10 µM
same,IC50,[19],5.4 µM
same,IC50,[20],5.8 µM
same,IC50,[21],> 10 µM
same,IC50,[22],5.5 µM
same,IC50,[23],6.3 µM
same,IC50,[24],5.3 µM
same,IC50,[25],2.2 µM
same,IC50,[26],4.1 µM
same,IC50,[27],3.2 µM
same,IC50,[28],5.1 µM
same,IC50,[29],6.8 µM
same,IC50,[30],1.6 µM
same,IC50,[31],1 µM
same,IC50,[32],1.7 µM
same,IC50,[33],0.57 µM
same,IC50,[34],3.5 µM
same,IC50,[35],6.4 µM
same,IC50,[36],5.7 µM
same,IC50,[37],4.5 µM
same,IC50,[38],5.1 µM
same,IC50,[39],> 10 µM
same,IC50,[40],3.8 µM
same,IC50,[41],> 10 µM
same,IC50,[42],1.4 µM
same,IC50,[43],3.9 µM
same,IC50,[44],3.9 µM
same,IC50,[45],6.6 µM
same,IC50,[46],3.2 µM
same,IC50,[47],0.58 µM
same,IC50,[48],0.83 µM
same,IC50,[49],> 10 µM
same,IC50,[50],0.53 µM
same,IC50,[51],3.8 µM
same,IC50,[52],5.2 µM
same,IC50,[53],> 10 µM
same,IC50,[54],5.6 µM
same,IC50,[55],7.3 µM
same,IC50,[56],8.3 µM
same,IC50,[57],5.6 µM
same,IC50,[58],7.3 µM
same,IC50,[59],5.2 µM
same,IC50,[60],4.2 µM
same,IC50,[61],5.8 µM
same,IC50,[62],5 µM
same,IC50,[63],5.4 µM
same,IC50,[64],6.3 µM
O=C(O)c1ccccc1-[n+]1ccc2c(c1)[nH]c1ccccc12.[Cl-] [RETICULATATE],Activity,[65],350 Zone units
same,Activity,[66],700 Zone units
same,Activity,[67],650 Zone units
same,Activity,[68],650 Zone units
same,Activity,[69],500 Zone units
COC(=O)c1ccccc1-[n+]1ccc2c(c1)[nH]c1ccccc12.[Cl-] [RETICULATINE],Activity,[70],600 Zone units
same,Activity,[71],450 Zone units
same,Activity,[72],600 Zone units
same,Activity,[73],500 Zone units
same,Activity,[74],350 Zone units
same,Activity,[75],500 Zone units
Oc1ccccc1-[n+]1ccc2c(c1)[nH]c1ccccc12.[Cl-] [RETICULATOL],Activity,[65],>1000 Zone units
same,Activity,[66],200 Zone units
same,Activity,[67],200 Zone units
same,Activity,[68],100 Zone units
same,Activity,[69],400 Zone units
